# Results taken from patent publication US20260224482A1, “USE OF OXIDATIVE PRECURSORS IN POULTRY FARMING” (AGA NANOTECH LTD, priority 2023, published 2026).
# Entries after “also recorded” stand apart in the source; their conditions may differ.
# Legend:
# [1] = system: Ross 308 male day-old chickens; assay: In-water PAA in chickens: performance and safety; assay type: in vivo
# Method: (§1) A total of 96 Ross 308 male day-old chickens were used during the trial duration (randomized block design with 2 rooms, 12 pens per room, 4 birds per pen and 4 pens per level of inclusion), whilst PAA treatment was administered during the last week. Six different PAA levels of inclusion were tested through in-water daily administration of SP and TAED precursors. Possible PAA effect on body weight gain (BWG), FCR (feed conversion ratio), feed/water intake and BN (bacterial number) were assessed through fitting linear mixed model (i.e. treatment as fixed effect and hierarchy of room/pen/bird when possible as random effect). Longitudinal data were used when repeated measures were taken. Total bacterial number in DNA extracted from crop, jejunum and caecal content was calculated through qPCR targeting 16S rRNA gene (V3 region). Study design and protocol were approved by SRUC Animal Welfare and Review Body (POU AE 20-2019).
# [2] = system: total bacterial number in crop content; assay: Total bacterial number by qPCR targeting 16S rRNA gene; assay type: in vivo, chickens; details: in-water for one week via SP and TAED precursors; P=0.02
# Method: as §1
structure (smiles),measurement,setting,value
"CC(=O)OO [PAA, peracetic acid]",effect on BWG from D7 to D14,"[1]; PAA administered at 40 ppm, P=0.05",most evident effect
same,adverse effects,[1]; PAA in-water administration,no adverse effects
same,bird mortality,[1]; in-water PAA up to 50 ppm,0 ^0/0
same,BWG during treatment,"[1]; in-water for one week via SP and TAED precursors, P=0.05",increased
same,BN in the crop,[2],reducing; also recorded: appears to be reduced by higher dosage
